According to patent publication US10689377B2 (Mirati Therapeutics, Inc., priority 2017, dated 2020):

Molecular target: KRas G12C (Homo sapiens, UniProt P01116, G12C)
Assay: Cellular inhibition of KRas G12C measured by Phospho-ERK in NCI-H358 cells
Format: cell-based
Conditions: pERK(Thr202/Tyr204) normalized with GAPDH, NCI-H358 cells, 3 hours; read-out: IC50
Experimental: Cells were plated in poly-D-Lysine coated 96-well plates at a concentration of 50,000 cells/well and allowed to attach for 8-12 hours. Diluted compounds were then added at a final concentration of 0.5% DMSO. After 3 hours, the medium was removed, 150 μL of 4% formaldehyde was added and the plates were incubated for 20 minutes. The plates were washed with PBS, and permeabilized using 150 μL of ice cold 100% methanol for 10 minutes. Non-specific antibody binding to the plates was blocked using 100 μL Licor Blocking Buffer (Li-Cor Biotechnology, Lincoln Nebr.) for 1 hour at room temperature. Positive control samples and samples lacking cells were parallel processed with test samples as standards.
The amount Phospho-ERK was determined using an antibody specific for the phosphorylated form of ERK and compared to the amount of GAPDH. […] The plates were incubated for 2 hours at room temperature. The plates were washed with PBS+0.05% Tween 20.
Secondary antibodies used to visualize primary antibodies were added as follows: Anti-rabbit-680 diluted 1:1000 and Anti-mouse-800 diluted 1:1000 in Licor Block+0.05% Tween 20 and incubated for 1 hour at room temperature. The plates were washed with PBS+0.05% Tween 20. A 100 μL aliquot of PBS was added to each well and the plates were read on a LICOR AERIUS plate reader.
The pERK(Thr202/Tyr204) signal was normalized with the GAPDH signal and percent of DMSO control values were calculated. IC50 values were generated using a 4 parameter fit of the dose response curve. Key: “A”≥0.0001-≤1 μM; “B”>1 μM and ND=not determined.

Chain of KRas G12C (P01116 1-188 isoform P01116-2 G12C): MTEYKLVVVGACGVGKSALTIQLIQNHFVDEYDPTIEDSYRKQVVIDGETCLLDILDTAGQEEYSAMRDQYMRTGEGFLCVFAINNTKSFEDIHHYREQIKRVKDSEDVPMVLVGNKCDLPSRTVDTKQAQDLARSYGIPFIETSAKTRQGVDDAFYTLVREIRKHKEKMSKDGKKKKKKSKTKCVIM

| IC50 [nM] | SMILES |
| --- | --- |
| 0.1 to 1000 | C=CC(=O)N1CCN(c2nc(O[C@H](C)CN3CCOCC3)nc3c2CCN(c2cc(O)cc4ccccc24)C3)CC1 [Example 56, (R)-1-(4-(7-(3-hydroxynaphthalen-1-yl)-2-((1-morpholinopropan-2-yl)oxy)-5,6,7,8-tetrahydropyrido[3,4-d]pyrimidin-4-yl)piperazin-1-yl)prop-2-en-1-one] |
| > 1000 | C=CC(=O)N1CCN(c2nc(OC[C@@H]3CCC(=O)N3)nc3c2CCN(c2cc(O)cc4ccccc24)C3)CC1 [Example 57, (S)-5-(((4-(4-acryloylpiperazin-1-yl)-7-(3-hydroxynaphthalen-1-yl)-5,6,7,8-tetrahydropyrido[3,4-d]pyrimidin-2-yl)oxy)methyl)pyrrolidin-2-one] |
| > 1000 | C=CC(=O)N1CCN(c2nc(OC[C@H]3CCC(=O)N3)nc3c2CCN(c2cc(O)cc4ccccc24)C3)CC1 [Example 58, (R)-5-(((4-(4-acryloylpiperazin-1-yl)-7-(3-hydroxynaphthalen-1-yl)-5,6,7,8-tetrahydropyrido[3,4-d]pyrimidin-2-yl)oxy)methyl)pyrrolidin-2-one] |
| > 1000 | C=CC(=O)N1CCN(c2nc(OCCNC(C)=O)nc3c2CCN(c2cc(O)cc4ccccc24)C3)CC1 [Example 59, N-(2-((4-(4-acryloylpiperazin-1-yl)-7-(3-hydroxynaphthalen-1-yl)-5,6,7,8-tetrahydropyrido[3,4-d]pyrimidin-2-yl)oxy)ethyl)acetamide] |
| > 1000 | C=CC(=O)N1CCN(c2nc(O[C@H](CC)CN(C)C)nc3c2CCN(c2cc(O)cc4ccccc24)C3)CC1 [Example 60, (R)-1-(4-(2-((1-(dimethylamino)butan-2-yl)oxy)-7-(3-hydroxynaphthalen-1-yl)-5,6,7,8-tetrahydropyrido[3,4-d]pyrimidin-4-yl)piperazin-1-yl)prop-2-en-1-one] |
| > 1000 | C=CC(=O)N1CCN(c2nc(O[C@H](C)CN3CC[C@@H](OC)C3)nc3c2CCN(c2cc(O)cc4ccccc24)C3)CC1 [Example 63, 1-(4-(7-(3-hydroxynaphthalen-1-yl)-2-(((R)-1-((R)-3-methoxypyrrolidin-1-yl)propan-2-yl)oxy)-5,6,7,8-tetrahydropyrido[3,4-d]pyrimidin-4-yl)piperazin-1-yl)prop-2-en-1-one] |
| 0.1 to 1000 | C=CC(=O)N1CCN(c2nc(O[C@H](C)CN3CC[C@H](OC)C3)nc3c2CCN(c2cc(O)cc4ccccc24)C3)CC1 [Example 64, 1-(4-(7-(3-hydroxynaphthalen-1-yl)-2-(((R)-1-((S)-3-methoxypyrrolidin-1-yl)propan-2-yl)oxy)-5,6,7,8-tetrahydropyrido[3,4-d]pyrimidin-4-yl)piperazin-1-yl)prop-2-en-1-one] |
| > 1000 | C=CC(=O)N1CCN(c2nc(O[C@H](C)CN3CC[C@H](O)C3)nc3c2CCN(c2cc(O)cc4ccccc24)C3)CC1 [Example 65, 1-(4-(7-(3-hydroxynaphthalen-1-yl)-2-(((R)-1-((S)-3-hydroxypyrrolidin-1-yl)propan-2-yl)oxy)-5,6,7,8-tetrahydropyrido[3,4-d]pyrimidin-4-yl)piperazin-1-yl)prop-2-en-1-one] |
| > 1000 | C=CC(=O)N1CCN(c2nc(O[C@H]3CCCN(C)C3)nc3c2CCN(c2cc(O)cc4ccccc24)C3)CC1 [Example 66, (S)-1-(4-(7-(3-hydroxynaphthalen-1-yl)-2-((1-methylpiperidin-3-yl)oxy)-5,6,7,8-tetrahydropyrido[3,4-d]pyrimidin-4-yl)piperazin-1-yl)prop-2-en-1-one] |
| 0.1 to 1000 | C=CC(=O)N1CCN(c2nc(O[C@@H]3CCCN(C)C3)nc3c2CCN(c2cc(O)cc4ccccc24)C3)CC1 [Example 67, (R)-1-(4-(7-(3-hydroxynaphthalen-1-yl)-2-((1-methylpiperidin-3-yl)oxy)-5,6,7,8-tetrahydropyrido[3,4-d]pyrimidin-4-yl)piperazin-1-yl)prop-2-en-1-one] |
| > 1000 | C=CC(=O)N1CCN(c2nc(O[C@H](C)CN(C)C)nc3c2CCN(c2cccc4ccccc24)C3)CC1 [Example 68, (R)-1-(4-(2-((1-(dimethylamino)propan-2-yl)oxy)-7-(naphthalen-1-yl)-5,6,7,8-tetrahydropyrido[3,4-d]pyrimidin-4-yl)piperazin-1-yl)prop-2-en-1-one] |
| > 1000 | C=CC(=O)N1CCN(c2ncnc3c2CCN(c2cncc4ccccc24)C3)CC1 [Example 69, 1-(4-(7-(isoquinolin-4-yl)-5,6,7,8-tetrahydropyrido[3,4-d]pyrimidin-4-yl)piperazin-1-yl)prop-2-en-1-one] |
| > 1000 | C=CC(=O)N1CCN(c2nc(OC(C)CNC)nc3c2CCN(c2cc(O)cc4ccccc24)C3)CC1 (stereo not shown) [Example 70, 1-(4-(7-(3-hydroxynaphthalen-1-yl)-2-((1-(methylamino)propan-2-yl)oxy)-5,6,7,8-tetrahydropyrido[3,4-d]pyrimidin-4-yl)piperazin-1-yl)prop-2-en-1-one] |
| > 1000 | C=CC(=O)N1CCN(c2ncnc3c2CCN(C(CO)c2ccccc2)C3)CC1 (stereo not shown) [Example 71, 1-(4-(7-(2-hydroxy-1-phenylethyl)-5,6,7,8-tetrahydropyrido[3,4-d]pyrimidin-4-yl)piperazin-1-yl)prop-2-en-1-one] |
| 0.1 to 1000 | C=CC(=O)N1CCN(c2nc(OCC3CCCN(C)C3)nc3c2CCN(c2cc(O)cc4ccccc24)C3)CC1 (stereo not shown) [Example 72] |
| > 1000 | C=CC(=O)N1CCN(c2nc(OCC(C)N(C)C)nc3c2CCN(c2cc(O)cc4ccccc24)C3)CC1 (stereo not shown) [Example 73, 1-(4-(2-(2-(dimethylamino)propoxy)-7-(3-hydroxynaphthalen-1-yl)-5,6,7,8-tetrahydropyrido[3,4-d]pyrimidin-4-yl)piperazin-1-yl)prop-2-en-1-one] |
| 0.1 to 1000 | C=CC(=O)N1CCN(c2nc(OCCCN3CCOCC3)nc3c2CCN(c2cc(O)cc4ccccc24)C3)CC1 [Example 74, 1-(4-(7-(3-hydroxynaphthalen-1-yl)-2-(3-morpholinopropoxy)-5,6,7,8-tetrahydropyrido[3,4-d]pyrimidin-4-yl)piperazin-1-yl)prop-2-en-1-one] |
| 0.1 to 1000 | C=CC(=O)N1CCN(c2nc(O[C@H](C)CN3CCCCC3)nc3c2CCN(c2cc(O)cc4ccccc24)C3)CC1 [Example 75, (R)-1-(4-(7-(3-hydroxynaphthalen-1-yl)-2-((1-(piperidin-1-yl)propan-2-yl)oxy)-5,6,7,8-tetrahydropyrido[3,4-d]pyrimidin-4-yl)piperazin-1-yl)prop-2-en-1-one] |
| > 1000 | C=CC(=O)N1CCN(c2nc(O[C@H](C)CN(C)C)nc3c2CCN(c2cc(O)cc(Cl)c2C(C)C)C3)CC1 [Example 76, (R)-1-(4-(7-(3-chloro-5-hydroxy-2-isopropylphenyl)-2-((1-(dimethylamino)propan-2-yl)oxy)-5,6,7,8-tetrahydropyrido[3,4-d]pyrimidin-4-yl)piperazin-1-yl)prop-2-en-1-one] |
| 0.1 to 1000 | C=CC(=O)N1CCN(c2nc(OCCN3C[C@@H]4CC[C@H]3C4)nc3c2CCN(c2cc(O)cc4ccccc24)C3)CC1 [Example 77, 1-(4-(2-(2-((1S,4R)-2-azabicyclo[2.2.1]heptan-2-yl)ethoxy)-7-(3-hydroxynaphthalen-1-yl)-5,6,7,8-tetrahydropyrido[3,4-d]pyrimidin-4-yl)piperazin-1-yl)prop-2-en-1-one] |
| > 1000 | C=CC(=O)N1CCN(c2nc(O[C@H](C)CN(C)C)nc3c2CCN(c2cc(O)ccc2OC(F)(F)F)C3)CC1 [Example 78, (R)-1-(4-(2-((1-(dimethylamino)propan-2-yl)oxy)-7-(5-hydroxy-2-(trifluoromethoxy)phenyl)-5,6,7,8-tetrahydropyrido[3,4-d]pyrimidin-4-yl)piperazin-1-yl)prop-2-en-1-one] |
| > 1000 | C=CC(=O)N1CCN(c2nc(O[C@H](C)CN(C)C)nc3c2CCN(c2cc(O)ccc2C(F)(F)F)C3)CC1 [Example 79, (R)-1-(4-(2-((1-(dimethylamino)propan-2-yl)oxy)-7-(5-hydroxy-2-(trifluoromethyl)phenyl)-5,6,7,8-tetrahydropyrido[3,4-d]pyrimidin-4-yl)piperazin-1-yl)prop-2-en-1-one] |
| > 1000 | C=CC(=O)N1CCN(c2nc(OCC3CN(C)CCN3)nc3c2CCN(c2cc(O)cc4ccccc24)C3)CC1 (stereo not shown) [Example 80, 1-(4-(7-(3-hydroxynaphthalen-1-yl)-2-((4-methylpiperazin-2-yl)methoxy)-5,6,7,8-tetrahydropyrido[3,4-d]pyrimidin-4-yl)piperazin-1-yl)prop-2-en-1-one] |
| > 1000 | C=CC(=O)N1CCN(c2nc(OCCN3CCC(C#N)CC3)nc3c2CCN(c2cc(O)cc4ccccc24)C3)CC1 [Example 81, 1-(2-((4-(4-acryloylpiperazin-1-yl)-7-(3-hydroxynaphthalen-1-yl)-5,6,7,8-tetrahydropyrido[3,4-d]pyrimidin-2-yl)oxy)ethyl)piperidine-4-carbonitrile] |
| 0.1 to 1000 | C=CC(=O)N1CCN(c2nc(OCCCN3CCN(C)CC3)nc3c2CCN(c2cc(O)cc4ccccc24)C3)CC1 [Example 82, 1-(4-(7-(3-hydroxynaphthalen-1-yl)-2-(3-(4-methylpiperazin-1-yl)propoxy)-5,6,7,8-tetrahydropyrido[3,4-d]pyrimidin-4-yl)piperazin-1-yl)prop-2-en-1-one] |
